According to US20080269152A1, “Nucleic acid binding oligonucleotides” (President and Fellows of Harvard College Harvard Medical …, priority 2003, published 2008):

What follows are sequences tested on internal ribosome entry site of the Hepatitis C virus, nucleotides 1-372 (HCV-IRES) RNA (assay: Hybridization of Cy3-labeled HCV-IRES RNA to DNA 5mer array). Conditions: address among the 40 most fluorescent in 3 out of 5 arrays; HCV-IRES RNA 92.7 nM, 4° C. overnight, scanned at 532 nm.
Format: binding
Protocol: A short DNA 5mer array was made to order by Combimatrix® Mukilteo, Wash. The array contained 1,000 of the […] possible DNA 5mer oligomers, and provided a separate address for each oligomer.
The target nucleic acid sequence used was the RNA transcript of the internal ribosome entry site of the Hepatitis C virus, nucleotides 1-372 (HCV-IRES). The RNA was prepared using a Megascrip™ T7 kit, nuclease free water and 5-(3aminoallyl)-UTP, which were all provided by Ambion Inc. A DNA template encoding the HCV-IRES was constructed according to standard techniques and linearized. RNA synthesis reaction mixture contained the following:
The reaction mixture was incubated at 30° C. overnight and purified using Rneasy® kit from QIAGEN, Inc. Target Sequence was then labeled using a Cy3 monoreactive dye pack from Amersham Biosciences, Inc. Dried HCV-IRES RNA was added to 20 μL of sodium carbonate (0.1 M pH 8.5) followed by 20 μL Cy3 dye solution. The reaction mixture was mixed and incubated at room temperature for 1 hour in the dark and purified using RNeasy® mini-kit.
The array was incubated with RNase free water for 30 minutes at 37° C. then washed three times with wash buffer (300 mM NaCl, 100 mM MgCl2). Hybridization was effected by adding a solution of HCV-IRES RNA (92.7 nM in 300 mM NaCl, 100 mM MgCl2 and 100 mM Tris pH 7.4) into the hybridization chamber. The array was incubated at 4° C. overnight in the dark and rinsed three times with wash buffer.
If an address corresponding to the same oligomer was selected in 3 out of 5 arrays analyzed, that oligomer was scored as likely binding ligand for the HCV-IRES RNA.

Sequence | likely binding candidates for HCV-IRES
GGCCC | likely binding candidates
GGGGG | likely binding candidates
GGTCC | likely binding candidates
GTCCC | likely binding candidates
TTCCC | likely binding candidates
TTCTC | likely binding candidates
